From BindingDB's records for patent US11802133 (Hoffmann-La Roche, 2023)

Biological target: T1, Monoglyceride lipase (Homo sapiens, UniProt Q99685)
T1 sequence (Q99685 whole entry): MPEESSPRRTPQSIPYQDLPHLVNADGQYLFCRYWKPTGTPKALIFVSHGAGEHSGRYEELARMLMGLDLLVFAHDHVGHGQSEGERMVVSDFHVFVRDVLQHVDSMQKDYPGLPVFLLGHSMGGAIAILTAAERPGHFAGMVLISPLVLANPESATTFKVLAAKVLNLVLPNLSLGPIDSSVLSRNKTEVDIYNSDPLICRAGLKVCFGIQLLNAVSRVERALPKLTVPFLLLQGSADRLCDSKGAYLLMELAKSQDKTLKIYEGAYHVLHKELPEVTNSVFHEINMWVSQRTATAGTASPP
Assay: MAGL Inhibitory Activity Assay
Procedure: The plate was shaked for 1 min at 2000 rpm (Variomag Teleshake) and then incubated for 15 min at RT. […] The final concentrations in the assay were 1 nM MAGL and 300 μM 4-Nitrophenylacetate. […] A second measurement was then done after incubation for 80 min at RT. From the two measurements, the slope was calculated by subtracting the first from the second measurement.

IC50 | Compound
0.03 µM | O=C1CO[C@H]2CCN(C(=O)N3CC(CCc4ccc(O)cc4C(F)(F)F)C3)C[C@H]2N1 [US11802133, Example 293]
0.045 µM | O=C1CO[C@H]2CCN(C(=O)N3CC(OCc4cccc(OC(F)(F)F)c4)C3)C[C@H]2N1 [US11802133, Example 226]
